The record followed here is ChEMBL document CHEMBL1145319, “Modeling and synthesis of non-cyclic derivatives of GPI-1046 as potential FKBP ligands with neurotrophic properties” (Bioorg Med Chem Lett, 2006).

For test [1], the target named is T1, Peptidyl-prolyl cis-trans isomerase FKBP4 (Homo sapiens) (UniProt Q02790).
T1 sequence (whole entry): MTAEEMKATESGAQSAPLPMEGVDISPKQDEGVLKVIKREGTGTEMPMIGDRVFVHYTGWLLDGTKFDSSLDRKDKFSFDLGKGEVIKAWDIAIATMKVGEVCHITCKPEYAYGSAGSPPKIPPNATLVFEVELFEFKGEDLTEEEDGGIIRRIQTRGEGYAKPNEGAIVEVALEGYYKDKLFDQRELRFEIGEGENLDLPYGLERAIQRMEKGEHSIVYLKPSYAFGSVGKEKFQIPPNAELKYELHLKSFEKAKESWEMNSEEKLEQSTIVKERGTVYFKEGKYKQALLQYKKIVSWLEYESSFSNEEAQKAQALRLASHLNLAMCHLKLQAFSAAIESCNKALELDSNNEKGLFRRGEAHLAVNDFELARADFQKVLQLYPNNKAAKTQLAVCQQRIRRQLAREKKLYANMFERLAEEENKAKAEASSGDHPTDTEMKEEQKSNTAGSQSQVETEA
In words: Neurotrophic activity in chick dorsal root ganglion at 100 pM in presence of NGF after 48 hrs relative to control. It is filed as functional, tissue-based. As to conditions: Gallus gallus, target entry is the homologue from another species.

Test [2] addresses T1, Peptidyl-prolyl cis-trans isomerase FKBP4 (Homo sapiens). In words: Neurotrophic activity in chick dorsal root ganglion at 1 pM in presence of NGF after 48 hrs relative to control. It is filed as functional, tissue-based. Conditions: Gallus gallus, target entry is the homologue from another species.

Turning to `CCC(C)(C)C(=O)C(=O)N1CCC[C@H]1C(=O)OCCCc1cccnc1`, in test [1], the Activity turned out to be 120%.
With `CCC(C)(C)C(=O)C(=O)N[C@H](C(=O)OCCCc1cccnc1)C(C)C`, the Activity in test [2] amounted to 100%; in test [1], 120%.
Take `CC(C)[C@H](NC(=O)C(=O)C(C)(C)C)C(=O)OCCCOc1ccccc1`: the Activity in test [2] amounted to 85%; in test [1], 93%.
Turning to `CC(C)C[C@H](NC(=O)C(=O)C(C)(C)C)C(=O)OCCCc1ccccc1`, the Activity was 73% in test [2] and 92% in test [1].
Turning to `CC(C)[C@H](NC(=O)C(=O)C(C)(C)C)C(=O)OCCCc1ccccc1`, the Activity was 65% in test [2] and 78% in test [1].
Take `CC(C)C[C@H](NC(=O)C(=O)C(C)(C)C)C(=O)OCCCOc1ccccc1`: the Activity in test [2] stood at 108%; in test [1], 93%.
The like results for `CC(C)[C@H](NC(=O)C(=O)C(C)(C)C)C(=O)OCCCc1cccnc1` were, in that order, 115% and 136%.
The like results for `CCC(C)(C)C(=O)C(=O)N[C@H](C(=O)OCCCc1ccccc1)C(C)C` were, in that order, 39% and 117%.
As for `CCC(C)(C)C(=O)C(=O)N[C@H](C(=O)OCCc1ccccc1C(F)(F)F)C(C)C`, the Activity in test [2] was found to be 123%; in test [1], 207%.
On the same counts, the results for `CC(C)[C@H](NC(=O)C(=O)C(C)(C)C)C(=O)OCCCC1CCCCC1` are 136% and 45%.
`CC(C)C[C@H](NC(=O)C(=O)C(C)(C)C)C(=O)OCCCC1CCCCC1`: the results for the Activity in test [2] and in test [1] were 123% and 101%, respectively.
Take `CC(C)C[C@H](NC(=O)C(=O)C(C)(C)C)C(=O)OCCCc1cccnc1`: the Activity in test [2] is 129%; in test [1], 65%.
